Data published in patent US20060025481A1, “Process for preparation of probucol derivatives and polymorphic forms thereof” (priority 2004, published 2006).

Key:
[1] = cited from earlier work
[2] = Solid-state stability of the polymorphic forms
[3] = Hygroscopicity of the crystalline polymorphic forms; assay type: physicochemical; conditions: crystalline solid form

## CC(C)(Sc1cc(C(C)(C)C)c(O)c(C(C)(C)C)c1)Sc1cc(C(C)(C)C)c(O)c(C(C)(C)C)c1 [probucol, 4,4′-(isopropylidenedithio) bis[2,6-di-tert-butylphenol]]
[1]
  solubility in water: minimally soluble in water

## CCC(Oc1c(C(C)(C)C)cc(SC(C)(C)Sc2cc(C(C)(C)C)c(O)c(C(C)(C)C)c2)cc1C(C)(C)C)C(=O)O (stereo not drawn) [Form Al]
[2]
  stability of polymorphic form: acceptable stability

## CC(C)(Sc1cc(C(C)(C)C)c(O)c(C(C)(C)C)c1)Sc1cc(C(C)(C)C)c(OCC(=O)O)c(C(C)(C)C)c1 [Form A]
[3]
  hygroscopicity: nonhygroscopic
